Experimental data taken from PMC12560751 (RSC Advances, 2025).

Key:
Type in all cases: biochemical
recombinant hMAO B = target: T1, recombinant hMAO B (Homo sapiens, UniProt P27338); experiment: MAO B inhibition, fluorometric method; details: for inhibition at 100 µM / inhibition at 1000 µM: read-out: MAO B % inhibition; for Selectivity and indexes: selective for MAO-B (over MAO A)
T1 sequence (P27338 1-520): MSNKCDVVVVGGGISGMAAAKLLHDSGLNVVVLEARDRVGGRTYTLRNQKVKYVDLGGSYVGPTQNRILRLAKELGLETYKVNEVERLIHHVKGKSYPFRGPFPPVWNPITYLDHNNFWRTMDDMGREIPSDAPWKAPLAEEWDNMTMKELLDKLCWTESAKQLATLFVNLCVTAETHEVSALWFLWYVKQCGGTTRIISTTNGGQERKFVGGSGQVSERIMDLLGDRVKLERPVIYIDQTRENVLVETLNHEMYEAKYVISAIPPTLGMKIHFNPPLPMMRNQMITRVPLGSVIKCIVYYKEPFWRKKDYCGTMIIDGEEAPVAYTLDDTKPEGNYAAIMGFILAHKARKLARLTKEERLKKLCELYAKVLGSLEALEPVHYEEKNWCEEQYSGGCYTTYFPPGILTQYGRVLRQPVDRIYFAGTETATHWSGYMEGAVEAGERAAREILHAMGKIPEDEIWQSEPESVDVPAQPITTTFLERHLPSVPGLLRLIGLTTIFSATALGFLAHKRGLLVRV

BChE = BChE (Homo sapiens, UniProt P06276); experiment: Anticholinesterase activity, modified colorimetric Ellman method; details: for inhibition at 100 µM / inhibition at 1000 µM: read-out: BChE % inhibition
hMAO A = target: T2, hMAO A (Homo sapiens, UniProt P21397); experiment: MAO A inhibition, fluorometric method; details: for inhibition at 100 µM / inhibition at 1000 µM: read-out: MAO A % inhibition; for Selectivity and indexes: selective for MAO-A (over MAO B)
T2 sequence (P21397 1-527): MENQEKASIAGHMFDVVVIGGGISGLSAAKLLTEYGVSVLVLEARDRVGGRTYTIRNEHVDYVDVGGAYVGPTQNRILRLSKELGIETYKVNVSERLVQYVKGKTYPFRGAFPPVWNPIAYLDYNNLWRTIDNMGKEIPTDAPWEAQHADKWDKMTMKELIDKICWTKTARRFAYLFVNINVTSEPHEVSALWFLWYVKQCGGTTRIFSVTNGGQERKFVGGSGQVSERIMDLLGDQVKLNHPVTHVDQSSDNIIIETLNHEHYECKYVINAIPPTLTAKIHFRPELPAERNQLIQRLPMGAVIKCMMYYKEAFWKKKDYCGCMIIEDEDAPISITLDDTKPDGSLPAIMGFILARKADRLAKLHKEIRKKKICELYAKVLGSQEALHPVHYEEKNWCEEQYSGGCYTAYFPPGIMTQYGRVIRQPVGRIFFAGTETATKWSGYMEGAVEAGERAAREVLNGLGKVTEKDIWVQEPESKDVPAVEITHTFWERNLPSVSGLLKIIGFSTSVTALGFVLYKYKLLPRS

AChE = AChE (Homo sapiens, UniProt P22303); experiment: Anticholinesterase activity, modified colorimetric Ellman method; details: for inhibition at 100 µM / inhibition at 1000 µM: read-out: AChE % inhibition; for Selectivity and indexes: selective for AChE (over BChE)
AChE, sequence (P22303 32-614): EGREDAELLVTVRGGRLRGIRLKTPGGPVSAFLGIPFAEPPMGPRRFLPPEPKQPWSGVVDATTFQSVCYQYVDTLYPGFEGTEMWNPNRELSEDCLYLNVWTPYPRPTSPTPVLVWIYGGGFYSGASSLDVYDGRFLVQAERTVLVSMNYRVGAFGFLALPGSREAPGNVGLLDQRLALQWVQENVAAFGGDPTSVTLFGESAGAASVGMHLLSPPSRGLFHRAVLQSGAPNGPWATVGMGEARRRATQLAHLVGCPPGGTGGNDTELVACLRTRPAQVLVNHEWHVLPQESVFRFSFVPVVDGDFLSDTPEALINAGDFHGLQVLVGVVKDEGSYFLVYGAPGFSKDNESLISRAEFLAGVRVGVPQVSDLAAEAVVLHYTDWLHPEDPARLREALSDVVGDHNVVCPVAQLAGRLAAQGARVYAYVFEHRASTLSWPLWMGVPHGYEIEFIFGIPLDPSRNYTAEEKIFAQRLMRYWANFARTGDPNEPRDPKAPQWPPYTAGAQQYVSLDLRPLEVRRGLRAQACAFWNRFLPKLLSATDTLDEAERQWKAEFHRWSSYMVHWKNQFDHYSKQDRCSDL

BChE, sequence (P06276 29-602, species assumed): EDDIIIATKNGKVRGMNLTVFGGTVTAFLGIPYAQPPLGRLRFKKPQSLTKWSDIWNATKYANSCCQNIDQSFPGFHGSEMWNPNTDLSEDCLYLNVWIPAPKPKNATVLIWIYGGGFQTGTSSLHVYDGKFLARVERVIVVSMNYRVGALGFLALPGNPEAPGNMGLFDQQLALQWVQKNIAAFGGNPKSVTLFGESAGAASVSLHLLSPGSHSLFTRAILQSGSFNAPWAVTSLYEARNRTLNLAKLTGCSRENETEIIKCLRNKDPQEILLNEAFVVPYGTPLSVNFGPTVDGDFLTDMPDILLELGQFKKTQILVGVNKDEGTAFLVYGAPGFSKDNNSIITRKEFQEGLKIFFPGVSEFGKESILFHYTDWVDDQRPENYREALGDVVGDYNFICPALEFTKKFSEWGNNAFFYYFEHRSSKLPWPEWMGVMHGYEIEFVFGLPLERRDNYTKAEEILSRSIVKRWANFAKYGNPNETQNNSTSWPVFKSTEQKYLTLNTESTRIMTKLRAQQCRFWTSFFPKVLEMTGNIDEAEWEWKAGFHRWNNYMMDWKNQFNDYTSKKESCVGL

Row | SMILES | IC50 (recombinant hMAO B; MAO B IC50, tables) [µM] | IC50 (recombinant hMAO B; MAO B IC50, text) [µM] | inhibition at 100 µM (recombinant hMAO B) [%] | inhibition at 1000 µM (recombinant hMAO B) [%] | inhibition at 10 µM (recombinant hMAO B; read-out: MAO B inhibition) [%] | Selectivity and indexes (recombinant hMAO B) | IC50 (BChE) [µM] | inhibition at 100 µM (BChE) [%] | inhibition at 1000 µM (BChE) [%] | IC50 (hMAO A) [µM] | inhibition at 100 µM (hMAO A) [%] | inhibition at 1000 µM (hMAO A) [%] | IC50 (AChE) [µM] | inhibition at 100 µM (AChE) [%] | inhibition at 1000 µM (AChE) [%] | Selectivity and indexes (AChE) | Selectivity and indexes (hMAO A)
1 | COc1ccc(C(=O)C=Cc2ccc(NC(=O)CN3CCN(C=O)CC3)cc2)cc1OC [Compound 4f, N-(4-(3-(3,4-Dimethoxyphenyl)-3-oxoprop-1-en-1-yl)phenyl)-2-(4-formylpiperazin-1-yl)acetamide] | 0.137 ± 0.005 | < 1 | 88.6 ± 1.83 | 90.7 ± 2.62 | 88.6 ± 1.83 | MAO-B/>1000 | > 1000 | 24.3 ± 0.829 | 31.7 ± 1.37 | > 1000 | 28.8 ± 0.861 | 40.8 ± 0.955 | 0.048 ± 0.002 | 94.8 ± 3.96 | 96.8 ± 2.93 | AChE/>1000 | –
2 | COCCN1CCN(CC(=O)Nc2ccc(C=CC(=O)c3ccc(OC)c(OC)c3)cc2)CC1 [Compound 4h, N-(4-(3-(3,4-Dimethoxyphenyl)-3-oxoprop-1-en-1-yl)phenyl)-2-(4-(2-methoxyethyl)piperazin-1-yl)acetamide] | > 100 | – | 41.3 ± 0.916 | 79.5 ± 2.86 | – | – | > 1000 | 21.5 ± 0.874 | 30.2 ± 1.13 | > 100 | 28.6 ± 1.05 | 59.9 ± 2.24 | 0.12 ± 0.005 | 86.5 ± 1.35 | 90.6 ± 2.75 | AChE/>1000 | –
3 | COc1ccc(C(=O)C=Cc2ccc(NC(=O)CN3CCN(S(C)(=O)=O)CC3)cc2)cc1OC [Compound 4m, N-(4-(3-(3,4-Dimethoxyphenyl)-3-oxoprop-1-en-1-yl)phenyl)-2-(4-(methylsulfonyl)piperazin-1-yl)acetamide] | > 100 | – | 29 ± 0.826 | 58 ± 1.63 | – | MAO-B/>10 | > 1000 | 33.3 ± 1.22 | 37.3 ± 0.961 | > 1000 | 33.6 ± 1.32 | 39.4 ± 1.37 | 0.158 ± 0.006 | 87.6 ± 1.72 | 89.4 ± 2.59 | AChE/>1000 | –
4 | COc1ccc(C(=O)C=Cc2ccc(NC(=O)CN3CCN(C)CC3)cc2)cc1OC [Compound 4a, N-(4-(3-(3,4-Dimethoxyphenyl)-3-oxoprop-1-en-1-yl)phenyl)-2-(4-methylpiperazin-1-yl)acetamide] | 0.274 ± 0.012 | < 1 | 80.5 ± 2.24 | 84 ± 1.93 | – | MAO-B/>1000 | > 1000 | 24.6 ± 0.974 | 42.5 ± 1.85 | > 1000 | 38.7 ± 1.06 | 47.7 ± 2.04 | 0.068 ± 0.003 | 90.3 ± 1.86 | 93.5 ± 3.16 | AChE/>1000 | –
5 | COc1ccc(C(=O)C=Cc2ccc(NC(=O)CN3CCN(CCN(C)C)CC3)cc2)cc1OC [Compound 4j, N-(4-(3-(3,4-Dimethoxyphenyl)-3-oxoprop-1-en-1-yl)phenyl)-2-(4-(2-(dimethylamino)ethyl)piperazin-1-yl)acetamide] | > 100 | – | 40.1 ± 1.06 | 82.2 ± 3.03 | – | MAO-B/>10 | > 1000 | 28.4 ± 1.16 | 42.7 ± 2.06 | > 1000 | 32.3 ± 1.14 | 47.7 ± 1.94 | 0.043 ± 0.002 | 92.2 ± 3.48 | 94 ± 1.94 | AChE/>1000 | –
6 | C=CCN1CCN(CC(=O)Nc2ccc(C=CC(=O)c3ccc(OC)c(OC)c3)cc2)CC1 [Compound 4d, 2-(4-Allylpiperazin-1-yl)-N-(4-(3-(3,4-dimethoxyphenyl)-3-oxoprop-1-en-1-yl)phenyl)acetamide] | > 1000 | – | 30.1 ± 0.957 | 36.7 ± 1.04 | – | – | > 1000 | 20.1 ± 0.964 | 40.3 ± 1.21 | > 100 | 41.4 ± 1.96 | 55 ± 2.06 | > 100 | 40 ± 1.02 | 80.7 ± 3.34 | – | MAO-A/>10
7 | C#CCN1CCN(CC(=O)Nc2ccc(C=CC(=O)c3ccc(OC)c(OC)c3)cc2)CC1 [Compound 4e, N-(4-(3-(3,4-Dimethoxyphenyl)-3-oxoprop-1-en-1-yl)phenyl)-2-(4-(prop-2-yn-1-yl)piperazin-1-yl)acetamide] | > 100 | – | 39.3 ± 1.48 | 78.2 ± 2.48 | – | – | > 1000 | 21.9 ± 0.835 | 38 ± 0.964 | > 100 | 44.2 ± 1.87 | 61.4 ± 1.95 | > 100 | 39.4 ± 1.32 | 67.2 ± 2.11 | – | –
8 | COc1ccc(C(=O)C=Cc2ccc(NC(=O)CN3CCN(C(C)C)CC3)cc2)cc1OC [Compound 4c, N-(4-(3-(3,4-Dimethoxyphenyl)-3-oxoprop-1-en-1-yl)phenyl)-2-(4-isopropylpiperazin-1-yl)acetamide] | > 1000 | – | 28.9 ± 1.02 | 41.1 ± 0.941 | – | – | > 1000 | 25.5 ± 1.1 | 46 ± 1.92 | > 1000 | 39 ± 0.933 | 47.4 ± 0.836 | > 100 | 48.2 ± 1.98 | 79.2 ± 3.03 | – | –
9 | CCN1CCN(CC(=O)Nc2ccc(C=CC(=O)c3ccc(OC)c(OC)c3)cc2)CC1 [Compound 4b, N-(4-(3-(3,4-Dimethoxyphenyl)-3-oxoprop-1-en-1-yl)phenyl)-2-(4-ethylpiperazin-1-yl)acetamide] | > 100 | – | 40.1 ± 1.97 | 60.4 ± 2.27 | – | – | > 1000 | 27 ± 0.877 | 31.1 ± 1.03 | > 100 | 31.2 ± 1.24 | 53.1 ± 2.17 | 0.093 ± 0.003 | 88.7 ± 2.23 | 92.6 ± 2.45 | AChE/>1000 | –
10 | COc1ccc(C(=O)C=Cc2ccc(NC(=O)CN3CCN(C4CCCC4)CC3)cc2)cc1OC [Compound 4l, 2-(4-Cyclopentylpiperazin-1-yl)-N-(4-(3-(3,4-dimethoxyphenyl)-3-oxoprop-1-en-1-yl)phenyl)acetamide] | > 1000 | – | 29.7 ± 0.841 | 46.7 ± 1.15 | – | – | > 1000 | 32.7 ± 1.35 | 41 ± 2 | > 1000 | 30.4 ± 1.25 | 36.7 ± 0.984 | > 100 | 40.3 ± 1.82 | 76.9 ± 2.36 | – | –
11 | COc1ccc(C(=O)C=Cc2ccc(NC(=O)CN3CCN(CCCN(C)C)CC3)cc2)cc1OC [Compound 4k, N-(4-(3-(3,4-Dimethoxyphenyl)-3-oxoprop-1-en-1-yl)phenyl)-2-(4-(3-(dimethylamino)propyl)piperazin-1-yl)acetamide] | > 1000 | – | 36.1 ± 0.964 | 48.7 ± 1.84 | – | – | > 1000 | 29 ± 1.04 | 46 ± 1.87 | > 100 | 41.3 ± 1.94 | 63 ± 2.86 | 0.039 ± 0.001 | 94.1 ± 2.96 | 97.4 ± 2.81 | AChE/>1000 | MAO-A/>10
12 | COc1ccc(C(=O)C=Cc2ccc(NC(=O)CN3CCN(CCCO)CC3)cc2)cc1OC [Compound 4i, N-(4-(3-(3,4-Dimethoxyphenyl)-3-oxoprop-1-en-1-yl)phenyl)-2-(4-(3-hydroxypropyl)piperazin-1-yl)acetamide] | > 100 | – | 47.4 ± 1.62 | 74.1 ± 2.42 | – | MAO-B/>10 | > 1000 | 23.6 ± 1.07 | 39.6 ± 1.34 | > 1000 | 29.1 ± 0.962 | 41.1 ± 2.06 | 0.084 ± 0.003 | 90.5 ± 2.83 | 94.2 ± 2.06 | AChE/>1000 | –
